# Laboratory results published in ChEMBL document CHEMBL3259563, “The discovery of potent and selective non-steroidal glucocorticoid receptor modulators, suitable for inhalation” (Bioorg Med Chem Lett, 2014).
# Assays:
# [1] = molecular target: Voltage-gated inwardly rectifying potassium channel KCNH2 (Homo sapiens, UniProt Q12809); assay: Inhibition of human ERG channel
# [2] = Intrinsic clearance in rat microsomes; assay type: ADME, Microsome
# [3] = Lipophilicity, log D of the compound at pH 7.4; assay type: physicochemical; settings: buffer
# [4] = molecular target: T1, Estrogen receptor (Homo sapiens, UniProt P03372); assay: Binding affinity to ER-alpha (unknown origin)
# T1 sequence (P03372 whole entry): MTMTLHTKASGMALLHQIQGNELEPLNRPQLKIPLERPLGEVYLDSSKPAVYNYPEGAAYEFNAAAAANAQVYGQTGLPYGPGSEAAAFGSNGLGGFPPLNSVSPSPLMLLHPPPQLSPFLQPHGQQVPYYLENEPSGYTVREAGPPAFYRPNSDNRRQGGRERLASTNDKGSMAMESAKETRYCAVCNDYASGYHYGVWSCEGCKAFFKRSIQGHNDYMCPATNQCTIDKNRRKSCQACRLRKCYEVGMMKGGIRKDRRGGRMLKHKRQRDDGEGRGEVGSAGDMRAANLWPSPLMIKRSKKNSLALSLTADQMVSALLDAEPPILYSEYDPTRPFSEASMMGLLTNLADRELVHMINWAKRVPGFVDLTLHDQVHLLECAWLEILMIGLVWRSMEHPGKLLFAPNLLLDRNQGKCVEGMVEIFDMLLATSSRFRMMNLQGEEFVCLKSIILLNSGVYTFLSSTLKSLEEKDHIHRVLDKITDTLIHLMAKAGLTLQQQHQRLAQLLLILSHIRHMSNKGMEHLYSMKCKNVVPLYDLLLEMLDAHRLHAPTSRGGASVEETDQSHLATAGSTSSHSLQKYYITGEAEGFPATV
# [5] = molecular target: T2, Androgen receptor (Homo sapiens, UniProt P10275); assay: Binding affinity to androgen receptor (unknown origin)
# T2 sequence (P10275 whole entry): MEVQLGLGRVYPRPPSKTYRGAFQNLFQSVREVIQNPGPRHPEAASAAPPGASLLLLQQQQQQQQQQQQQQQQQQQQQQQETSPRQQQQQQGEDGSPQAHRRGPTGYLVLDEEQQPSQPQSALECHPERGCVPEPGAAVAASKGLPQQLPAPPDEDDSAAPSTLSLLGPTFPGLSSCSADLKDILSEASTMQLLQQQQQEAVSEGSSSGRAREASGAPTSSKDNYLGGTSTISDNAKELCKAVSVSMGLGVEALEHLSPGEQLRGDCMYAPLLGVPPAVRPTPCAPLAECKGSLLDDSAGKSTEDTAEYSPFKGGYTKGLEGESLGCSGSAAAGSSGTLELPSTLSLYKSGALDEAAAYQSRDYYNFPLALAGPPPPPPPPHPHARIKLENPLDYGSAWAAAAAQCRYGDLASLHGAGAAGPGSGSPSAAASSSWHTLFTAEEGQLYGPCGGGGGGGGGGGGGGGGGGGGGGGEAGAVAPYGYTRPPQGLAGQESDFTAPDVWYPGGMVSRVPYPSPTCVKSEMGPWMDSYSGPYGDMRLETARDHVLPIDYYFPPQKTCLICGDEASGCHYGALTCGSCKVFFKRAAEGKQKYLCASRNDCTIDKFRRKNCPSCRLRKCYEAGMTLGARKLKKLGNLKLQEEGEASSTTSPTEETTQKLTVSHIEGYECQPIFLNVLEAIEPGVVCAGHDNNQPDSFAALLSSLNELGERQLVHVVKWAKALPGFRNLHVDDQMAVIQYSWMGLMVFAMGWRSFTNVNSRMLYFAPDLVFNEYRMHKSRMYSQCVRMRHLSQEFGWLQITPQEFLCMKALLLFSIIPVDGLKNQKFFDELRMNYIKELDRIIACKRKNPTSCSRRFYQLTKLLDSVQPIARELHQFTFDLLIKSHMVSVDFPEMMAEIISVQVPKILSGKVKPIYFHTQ
# [6] = system: Lung; assay: Drug uptake in intratracheally dosed rat lung after 4 hrs; assay type: ADME, organism-based; settings: in vivo, inhaled_or_intranasal
# [7] = molecular target: Cytochrome P450 3A4 (Homo sapiens, UniProt P08684); assay: Inhibition of CYP3A4 (unknown origin); assay type: ADME
# [8] = Volume of distribution at steady state in iv dosed rat; assay type: ADME, organism-based; settings: in vivo, read-out: Vdss
# [9] = molecular target: T3, Cytochrome P450 1A2 (Homo sapiens, UniProt P05177); assay: Inhibition of CYP1A2 (unknown origin); assay type: ADME
# T3 sequence (P05177 whole entry): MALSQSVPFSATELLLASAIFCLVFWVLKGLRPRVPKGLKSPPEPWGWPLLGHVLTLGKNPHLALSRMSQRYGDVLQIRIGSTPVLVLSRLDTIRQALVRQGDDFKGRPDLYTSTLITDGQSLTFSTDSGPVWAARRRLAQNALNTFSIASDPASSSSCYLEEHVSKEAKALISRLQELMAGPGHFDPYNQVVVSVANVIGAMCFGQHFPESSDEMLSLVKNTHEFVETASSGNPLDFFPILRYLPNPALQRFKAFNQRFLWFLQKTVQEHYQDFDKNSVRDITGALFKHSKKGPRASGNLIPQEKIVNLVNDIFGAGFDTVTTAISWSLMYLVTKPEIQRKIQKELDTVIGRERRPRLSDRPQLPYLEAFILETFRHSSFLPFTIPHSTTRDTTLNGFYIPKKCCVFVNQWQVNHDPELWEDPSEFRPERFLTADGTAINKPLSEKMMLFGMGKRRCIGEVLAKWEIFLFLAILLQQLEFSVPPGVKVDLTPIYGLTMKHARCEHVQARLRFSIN
# [10] = system: Plasma; assay: Fraction unbound in human plasma; assay type: ADME, cell-free
# [11] = molecular target: Cytochrome P450 2D6 (Homo sapiens, UniProt P10635); assay: Inhibition of CYP2D6 (unknown origin); assay type: ADME
# [12] = molecular target: Cytochrome P450 2C19 (Homo sapiens, UniProt P33261); assay: Inhibition of CYP2C19 (unknown origin); assay type: ADME
# [13] = molecular target: Estrogen receptor beta (Homo sapiens, UniProt Q92731); assay: Binding affinity to ER-beta (unknown origin)
# Chain of Estrogen receptor beta (Q92731 whole entry): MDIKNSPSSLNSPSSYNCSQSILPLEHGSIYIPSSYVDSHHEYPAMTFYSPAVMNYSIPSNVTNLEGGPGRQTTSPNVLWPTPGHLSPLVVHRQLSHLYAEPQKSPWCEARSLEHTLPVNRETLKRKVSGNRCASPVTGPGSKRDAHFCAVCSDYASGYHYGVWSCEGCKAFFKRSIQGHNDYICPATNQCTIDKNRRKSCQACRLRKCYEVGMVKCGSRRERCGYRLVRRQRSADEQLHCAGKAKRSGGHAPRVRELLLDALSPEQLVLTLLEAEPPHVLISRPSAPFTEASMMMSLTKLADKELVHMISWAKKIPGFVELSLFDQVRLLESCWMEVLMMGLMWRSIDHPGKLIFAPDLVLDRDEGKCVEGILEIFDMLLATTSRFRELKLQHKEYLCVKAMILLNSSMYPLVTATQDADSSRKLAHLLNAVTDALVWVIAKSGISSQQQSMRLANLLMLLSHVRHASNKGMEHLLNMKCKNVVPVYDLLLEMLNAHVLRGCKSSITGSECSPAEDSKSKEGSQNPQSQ
# Chain of Voltage-gated inwardly rectifying potassium channel KCNH2 (Q12809 whole entry): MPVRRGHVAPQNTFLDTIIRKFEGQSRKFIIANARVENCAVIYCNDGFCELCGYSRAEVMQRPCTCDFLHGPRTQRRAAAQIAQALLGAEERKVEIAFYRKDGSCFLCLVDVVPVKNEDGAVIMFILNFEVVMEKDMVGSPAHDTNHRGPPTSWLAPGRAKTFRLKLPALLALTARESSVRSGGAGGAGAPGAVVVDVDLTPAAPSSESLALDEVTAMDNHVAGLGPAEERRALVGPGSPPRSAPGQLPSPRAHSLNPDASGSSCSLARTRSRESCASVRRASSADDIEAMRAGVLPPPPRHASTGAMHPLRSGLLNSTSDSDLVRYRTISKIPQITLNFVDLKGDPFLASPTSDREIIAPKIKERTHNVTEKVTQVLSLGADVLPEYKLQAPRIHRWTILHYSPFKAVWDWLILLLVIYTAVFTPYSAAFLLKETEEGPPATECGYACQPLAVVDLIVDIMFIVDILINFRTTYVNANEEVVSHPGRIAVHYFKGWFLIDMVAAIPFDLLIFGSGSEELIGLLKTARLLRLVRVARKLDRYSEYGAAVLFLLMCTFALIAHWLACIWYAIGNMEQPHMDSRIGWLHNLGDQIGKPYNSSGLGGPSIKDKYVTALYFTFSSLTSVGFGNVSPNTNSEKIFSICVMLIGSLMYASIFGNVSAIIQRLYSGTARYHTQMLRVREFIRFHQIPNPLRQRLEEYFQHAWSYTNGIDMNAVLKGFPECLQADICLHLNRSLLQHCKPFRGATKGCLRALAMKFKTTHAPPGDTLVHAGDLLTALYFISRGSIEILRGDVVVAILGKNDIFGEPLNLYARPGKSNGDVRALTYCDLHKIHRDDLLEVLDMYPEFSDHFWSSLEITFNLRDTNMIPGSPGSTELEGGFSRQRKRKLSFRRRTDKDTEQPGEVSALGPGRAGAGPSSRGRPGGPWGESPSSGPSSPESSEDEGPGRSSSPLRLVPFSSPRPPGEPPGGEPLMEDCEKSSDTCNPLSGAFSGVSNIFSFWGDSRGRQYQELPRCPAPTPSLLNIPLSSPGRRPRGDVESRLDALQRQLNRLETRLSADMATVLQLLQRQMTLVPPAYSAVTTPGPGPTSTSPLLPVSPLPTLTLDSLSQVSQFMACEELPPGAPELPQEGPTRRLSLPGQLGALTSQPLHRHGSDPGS
# Chain of Cytochrome P450 2C19 (P33261 whole entry): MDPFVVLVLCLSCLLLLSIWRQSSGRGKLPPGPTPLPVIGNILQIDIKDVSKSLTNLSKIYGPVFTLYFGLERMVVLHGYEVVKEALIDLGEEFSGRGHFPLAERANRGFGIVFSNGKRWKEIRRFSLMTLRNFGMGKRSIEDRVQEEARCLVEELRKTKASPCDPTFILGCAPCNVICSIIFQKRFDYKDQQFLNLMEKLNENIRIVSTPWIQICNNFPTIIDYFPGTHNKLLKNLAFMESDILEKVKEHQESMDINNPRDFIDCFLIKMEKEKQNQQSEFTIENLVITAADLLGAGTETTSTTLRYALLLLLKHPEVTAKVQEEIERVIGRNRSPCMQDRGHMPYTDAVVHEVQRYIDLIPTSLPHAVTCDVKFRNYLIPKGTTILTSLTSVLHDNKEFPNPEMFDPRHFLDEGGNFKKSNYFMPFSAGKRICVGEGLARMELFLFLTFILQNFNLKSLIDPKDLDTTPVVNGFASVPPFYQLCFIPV
# Chain of Cytochrome P450 3A4 (P08684 whole entry): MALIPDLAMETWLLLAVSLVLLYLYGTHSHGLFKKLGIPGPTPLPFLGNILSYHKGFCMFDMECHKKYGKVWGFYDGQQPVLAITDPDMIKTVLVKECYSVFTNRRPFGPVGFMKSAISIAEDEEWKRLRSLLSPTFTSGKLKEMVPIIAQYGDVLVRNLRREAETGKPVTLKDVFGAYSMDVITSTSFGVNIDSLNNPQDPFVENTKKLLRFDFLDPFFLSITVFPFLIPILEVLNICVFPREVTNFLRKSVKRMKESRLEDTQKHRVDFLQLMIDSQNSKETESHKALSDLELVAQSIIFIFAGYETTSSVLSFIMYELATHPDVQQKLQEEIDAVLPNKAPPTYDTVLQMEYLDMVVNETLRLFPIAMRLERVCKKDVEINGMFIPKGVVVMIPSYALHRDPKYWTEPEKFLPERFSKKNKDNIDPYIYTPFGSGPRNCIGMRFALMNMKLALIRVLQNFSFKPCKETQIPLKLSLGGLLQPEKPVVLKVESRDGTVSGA
# Chain of Cytochrome P450 2D6 (P10635 whole entry): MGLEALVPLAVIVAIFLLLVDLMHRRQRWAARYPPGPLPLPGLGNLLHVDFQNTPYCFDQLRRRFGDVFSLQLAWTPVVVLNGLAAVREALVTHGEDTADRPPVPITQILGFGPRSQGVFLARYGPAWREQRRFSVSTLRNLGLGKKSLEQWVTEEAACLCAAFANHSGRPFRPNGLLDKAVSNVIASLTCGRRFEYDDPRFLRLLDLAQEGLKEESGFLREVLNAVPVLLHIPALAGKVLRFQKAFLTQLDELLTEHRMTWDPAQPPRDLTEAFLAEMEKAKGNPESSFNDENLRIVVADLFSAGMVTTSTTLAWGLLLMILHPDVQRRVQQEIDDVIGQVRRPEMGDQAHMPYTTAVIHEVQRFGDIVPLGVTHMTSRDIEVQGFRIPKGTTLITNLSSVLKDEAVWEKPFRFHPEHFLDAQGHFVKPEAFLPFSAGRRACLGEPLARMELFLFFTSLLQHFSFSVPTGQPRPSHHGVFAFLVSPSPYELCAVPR
smiles,measurement,setting,value
Cc1nn(C2CCCC2)c(C)c1S(=O)(=O)N[C@@H](C)CNc1cccc2c1cnn2-c1ccc(F)nc1,IC50,[1],8.7 µM
same,microsomal CLint,[2],> 200 µL/min/mg
same,logD,[3],3.7
same,IC50,[4],> 5 µM
same,IC50,[5],> 1 µM
same,Drug uptake,[6],Active
same,IC50,[7],22 µM
same,Vd,[8],15 L/kg
same,IC50,[9],> 20 µM
same,Fu,[10],0.005%
same,IC50,[11],> 20 µM
same,IC50,[12],> 20 µM
same,IC50,[13],> 5 µM
